Reference: patent US20040259942A1, “Modulation of stat activity” (priority 2001, published 2004)
“Also recorded” adds a separate entry of the source.

Columns and labels:
Type in all cases: cell-based, human
[1] = system: poly ADP-ribose polymerase (PARP); assay: PARP cleavage by Western blotting; settings: 100 μM, 18 hours
Experimental: OdDHL induces apoptosis of BC cells (a) MCF-7 cells were cultured in full medium alone or in the presence of 1001M OdDHL or 100 μM OHHL. After 18 hours cells were fixed, stained with DAPI and examined by confocal microscopy. Left-hand panels show DAPI, right-hand panels show the corresponding phase contrast and middle panels the image overlays. (b) MDA-MB-468 cells were cultured in full medium alone or in the presence of 100 μM OdDHL or 100 μM OHHL. After 18 hours cells were fixed, stained and examined as in (a). (c) BR293, MCF-7 and MDA-MD-468 cells were cultured in full medium alone (lanes 1, 3, 5) or in the presence of 100 μM OdDHL (lanes 2, 4, 6) or 400 μM etoposide (lane 7). After 18 hours cells were lysed and analysed for PARP cleavage by Western blotting with an anti-PARP antibody. Full length PARP is labelled and the lower arrow indicates the major caspase cleavage fragment.

MDA-MB-468 cells = assay: Cell proliferation assay (cell counting); settings: over a 48-hour period
Experimental: Equal numbers of BR293 and MDA-MB-468 cells were seeded in MEM containing 10% FCS into 10 cm dishes. […]. For the 48 time points, fresh medium containing the appropriate inhibitor was applied to the cells after 24 hours. Controls were allowed to grow for 48 hours in the absence of inhibitor. Thereafter, all the cells were washed twice with ice cold PBS, harvested and counted under a phase-contrast microscope. Values are expressed as averages+S.D. (n=3).
(§1) Equal numbers of BR293, MCF-10F, MCF-7, MDA-MB-468, HKEK293 and COS1 cells were seeded in the appropriate growth medium into 10 cm dishes. Cells were allowed to grow in the presence of various concentrations of OdDHL or OHHL for 24 or 48 hours. For the 48-hour time points, fresh medium containing the appropriate inhibitor was applied to the cells after 24 hours. Controls were allowed to grow for 48 hours in the absence of inhibitor. Thereafter, all the cells were washed twice with ice cold PBS, harvested and counted under a phase-contrast microscope. Values are expressed as averages ±S.D. (n=3).

p46/p54 JNK/SAPK = assay: JNK/SAPK phosphorylation in anisomycin-treated cells (Western blotting); settings: BR293 cells treated with anisomycin
Experimental: (§2) ERKs are unaffected by OdDHL (a) BR293 cells were serum-starved (lane 1) or starved and stimulated with TPA for 30 min alone (lane 2) or in the presence of increasing concentrations of OdDHL (lanes 3-6) or 100 μM OHHL (lane 7). Cell lysates were prepared and analysed by Western blotting for ERK phosphorylation with an antibody specific for phospho-ERK½ (upper panel) and for ERK content with an antibody against ERKs (lower panel). (b) BR293 cells were serum-starved (lane 1) or starved and stimulated with Anisomycin for 30 min alone (lane 2) or in the presence of increasing concentrations of OdDHL (lanes 3-6) or 100 μM OHHL (lane 7). Cell lysates were prepared and analysed by Western blotting for JNK/SAPK phosphorylation with an antibody specific for phospho-JNKs (upper panel) and for SAPK/JNK content with an antibody against JNKs (lower panel). (c) BR293 cells were treated as described in (b) and lysates were analysed by Western blotting for p38^MAPK phosphorylation with an antibody specific for phospho-p38 (upper panel) and for p38 content with an antibody against p38 (lower panel).

p38^MAPK = assay: p38 MAPK phosphorylation in anisomycin-treated cells (Western blotting); settings: BR293 cells treated with anisomycin
Experimental: as §2

[2] = system: autocrine factor release from BR293 cells; assay: Autocrine factor release: CM from pre-treated serum-stimulated cells tested for STAT3 phosphorylation; settings: 100 μM (FIG. 18d)
Experimental: OdDHL blocks the autocrine release of mitogens from BC cells (a) Equal numbers of BR293 cells were cultured in MEM alone, serum-free MEM conditioned by serum-stimulated BR293 cells for 2 hours, or the same supplemented with 5% FCS, as indicated. After 24 hours [^3H]-thymidine was added to the medium. After a further 18 hours, cells were harvested and analysed for incorporation of ^3H. Error bars denote SD (n=4). (b) BR293 cells were serum-starved (lane 1) or starved and stimulated with 10% FCS for 2 hours directly (lane 2) or after pretreatment with α-amanitin (1004/ml) for 2.5 hours (lane 3) or actinomycin D ([…]) for 10 min (lane 4). […] (c) BR293 cells were serum-starved (lane 1) or starved and stimulated with 10% FCS alone for 2 hours (lane 2), with serum-free CM alone for 15 min (lane 5) or in the presence of increasing 100 μM AG490 (lanes 3 and 6) or 100 μM OdDHL (lanes 4 and 7). Cell lysates were prepared and analysed by Western blotting as described in the legend to FIG. 1a. (d) BR293 cells were stimulated with 10% FCS in the presence of 100 μM OHHL (lane 1) or OdDHL (lane 2). After 2 hours the cells were washed and incubated for a further 2 hours in serum-free MEM. […] Lysates were prepared from all the cells and analysed by Western blotting as described in the legend to FIG. 1a.

HEK293 cells = assay: Cell proliferation assay (cell counting); settings: cells with constitutive STAT3 activity; 48 hours
Experimental: as §1

MCF-7 cells = assay: Cell proliferation assay (cell counting); settings: over a 48-hour period
Experimental: as §1

STAT3 = assay: EGF-induced STAT3 phosphorylation (Western blotting, Y705); settings: MDA-MB-468 cells; co-treatment 100 μM
Experimental: EGF-R was immunoprecipitated from cell lysates and analysed by Western blotting tyrosine phosphorylation with an anti phosphotyrosine antibody (upper panel, top) and EGF-R content with an anti-EGF-R antibody (lower panel, top). Cell lysates were analysed in parallel for STAT3 phosphorylation with an antibody specific for STAT3 phosphorylated on Y705 (upper panel, bottom) and for STAT3 content with an antibody for STAT3 (lower panel, bottom). […] The inclusion of an anti-STAT3 antibody in duplicate binding reactions (even lanes) identifies STAT3-containing heterodimers (3:1), as indicated to the right of the panel. (c) COS-1 cells were transfected with an expression vector for STAT3, a STAT3-responsive luciferase reporter (SIE2-luc) and a control gene for β-galactosidase. […] After 6 hours cells were harvsted and reporter gene expression analysed. Results are normalised against β-galactosidase values and expressed as averages +/−SD (n=3).

In the case of `CCCCCCCCCC(=O)CC(=O)N[C@H]1CCOC1=O` [OdDHL, N-(3-oxo-dodecanoyl)-L-homoserine lactone], the PARP cleavage ([1]; BR293 cells) is reported as “characteristic cleavage fragment was detected”, the PARP cleavage ([1]; MCF-7 cells) is reported as “induced PARP cleavage” and the PARP cleavage ([1]; MDA-MB-468 cells, compared with 400 μM etoposide) is reported as “to the same extent as etoposide”. For the same compound, the inhibition of proliferation (MDA-MB-468 cells) was 70%-80%, the “p46/p54 JNK/SAPK phosphorylation” value (p46/p54 JNK/SAPK) was “modest but reproducible inhibition” and the “p38^MAPK phosphorylation” value (p38^MAPK) was “modest but reproducible inhibition”. The “STAT3 phosphorylation induced by CM from serum-stimulated cells pre-treated with the compound” value [2] was “unable to stimulate STAT3 phosphorylation; also recorded: failed to induce STAT3 phosphorylation”, the “growth sensitivity to treatment” value (HEK293 cells) was “sensitive” and the inhibition of proliferation (MCF-7 cells) was 70%-80%. For the same compound, the “STAT3 phosphorylation in response to EGF” value (STAT3) was “augmented”.
